Measurements reported in patent US11254640B2, “N-substituted indoles and other heterocycles for treating brain disorders” (The Regents of the University of California, priority 2019, dated 2022).

Test system: C57/BL6J mice
Assay: Forced swim test (FST)
Format: in vivo, mouse
Conditions: 24 h after drug administration; i.p., compounds 20 mg/kg, ketamine 3 mg/kg
Method: Forced Swim Test. As increased cortical structural plasticity in the anterior parts of the brain mediates the sustained (>24 h) antidepressant-like effects of ketamine and play a role in the therapeutic effects of 5-HT2A agonists, the impact of IsoDMT analogs on forced swim test (FST) behavior (FIG. 14A and FIG. 14B) was evaluated. First, a pretest was used to induce a depressive phenotype. Compounds were administered 24 h after the pre-test, and the FST was performed 24 h and 7 d post drug administration.
Forced Swim Test (FST). Male C57/BL6J mice (9-10 weeks old at time of experiment) were obtained from the Jackson Lab and housed 4-5 mice/cage in a UCD vivarium following an IACUC approved protocol. After 1 week in the vivarium each mouse was handled for approximately 1 minute by a experimenter for 3 consecutive days leading up to the first FST. […] Immobility scores for all mice were determined after the pre-test and mice were randomly assigned to treatment groups to generate groups with similar average immobility scores to be used for the following two FST sessions. […] Experiments were video-recorded and manually scored offline. Immobility time—defined as passive floating or remaining motionless with no activity other than that needed to keep the mouse's head above water—was scored for the last 4 min of the 6 min trial.

SMILES: COc1ccc2c(ccn2C[C@@H](C)N(C)C)c1 [Example 59, (R)-1-(5-methoxy-1H-indol-1-yl)-N,N-dimethylpropan-2-amine]
- immobility in forced swim test: significantly reduced immobility
